Key:
[1] = test system: MAT2A; assay: MAT2A mRNA levels by real-time PCR in HT-29 cells; assay type: cell-based, human; conditions: for MAT2A expression: 6 hr treatment, HT-29 cells
Procedure: (§1) HT-29 and RKO cells were obtained from the Cell Culture Core of the USC Liver Disease Research Center and grown according to instructions provided by the American Type Culture Collection (ATCC, Rockville, Md.). Prior to treatment with growth factors, SAMe or MTA, medium was changed to 0.1% FBS overnight.
RNA interference (RNAi) experiments were performed using Lipofectamine RNAiMax (Invitrogen) according to the manufacturer's instructions. Small interfering RNA (siRNA) oligonucleotides for MAT2A and scrambled siRNA were synthesized by the USC Norris Comprehensive Cancer Center Microchemical Core Laboratory, and annealed to form duplexes. Stealth RNAi for MAT2A and Stealth RNAi negative control duplexes were synthesized by Invitrogen (Carlsbad, Calif.). The following siRNA sequences were used: si-MAT2A #1, 5′-[…]-3′ (sense) and 5′-[…]-3′ (antisense); si-control with scrambled sequence (negative control siRNA having no perfect matches to known human genes), 5′-[…]dTdT-3′ (sense) and 5% […]dTdT-3′ (antisense); stealth RNAi-MAT2A #5, 5′-[…]-3′ (sense) and 5′-[…]-3′ (antisense). […]
(§2) Total RNA was isolated by the EZgeno total RNA isolation kit (Genemega, San Giego, Calif.), and subjected to reverse transcription (RT) by using M-MLV Reverse transcriptase (Invitrogen). 2 μl of RT product was subjected to quantitative real-time PCR analysis. The primers and TaqMan probes for MAT2A, MAT2β and Universal PCR Master Mix were purchased from ABI (Foster City, Calif.). Hypoxanthine phosphoribosyl-transferase 1 (HPRT1) and ubiquitin C (UBC) were used as housekeeping genes (48). The thermal profile consisted of 1 cycle at 95° C. for 15 minutes followed by 40 cycles at 95° C. for 15 seconds and at 60° C. for 1 minute. The expression of MAT2A and MAT2β was checked by normalizing the Ct of MAT2A and MAT2β to that of the control housekeeping gene (HPRT1 or UBC) (49). The delta Ct obtained was used to find the relative expression of MAT genes according to the formula: Relative expression=2·^ΔCt, where ΔCt=ΔCt of MAT genes in colon cancer or treated cells—ΔCt of MAT genes in normal colon or control cells.

[2] = test system: RKO cells; assay: Apoptosis in RKO cells (HOECHST staining, Annexin V); assay type: cell-based, human; conditions: by 24 hrs, RKO cells
Procedure: Apoptosis was assessed by HOECHST staining (34). Briefly, RKO cells were grown on coverslips and treated with RNAi#1 for 24 hrs and cells were fixed with paraformaldehyde and stained with 8 μg/ml HOECHST 33258 dye for 30 min. Cells with bright, fragmented, condensed nuclei were identified as apoptotic cells using the Nikon Eclipse TE300 fluorescent microscope. At least 5 random fields (at ×300) were counted.
In these experiments the total treatment duration was limited to 16 hrs to avoid the apoptotic effect. […] Apoptosis was measured by Hoechst staining or Annexin V and propidium iodide staining on flow cytometry.

[3] = test system: HT-29 cells; assay: Polyamine levels in HT-29 cells; assay type: cell-based, human; conditions: 6 hrs
Procedure: as §1
Cellular SAMe and MTA levels were measured (51) and polyamine levels were determined (52).

[4] = test system: ornithine decarboxylase (ODC); assay: ODC expression by real-time PCR in HT-29 cells; assay type: cell-based, human; conditions: 6 hrs
[5] = test system: SPD syn; assay: SPD syn expression by real-time PCR in HT-29 cells; assay type: cell-based, human; conditions: 6 hrs
[6] = test system: spermine synthase (SPM syn); assay: SPM syn expression by real-time PCR in HT-29 cells; assay type: cell-based, human; conditions: 6 hrs
[7] = test system: Bcl-xS; assay: Bcl-xS mRNA level in HT-29 cells; assay type: cell-based, human; conditions: 6 hrs
Procedure: SAMe and MTA induce apoptosis in liver cancer cells by the mitochondrial pathway (14). […] In liver cancer cells, SAMe and MTA induced selectively expression of Bcl-xs, a pro-apoptotic protein (67). We examined whether the same occurs in HT-29 cells. After 6 hrs of MTA (1 mM) treatment, Bcl-xL mRNA level fell by 53% (47±4% of control, results are mean±SE from 4 experiments, p<0.0005). […] This makes these agents particularly attractive in targeting colon cancer cells.

[8] = test system: RKO cells; assay: TRAIL-induced apoptosis in RKO cells (Annexin V with FACS); assay type: cell-based, human; conditions: 24 hours
Procedure: FIG. 28. MTA sensitizes RKO cells to TRAIL-induced apoptosis. RKO cells were treated with 1 mM MTA, […] 5-FU, or 10 ng/ml TRAIL alone or in combination for 24 hours. Apoptosis was determined by Annexin V with FACS.

[9] = test system: MAT2A; assay: Intestinal MAT2A expression in mice given SAMe or MTA in drinking water; assay type: in vivo
Procedure: FIG. 30. Effects of oral SAMe and MTA on colonic mRNA levels of MAT2A, MAT2 β, and cFLIPL. Mice were fed SAMe (150 to 450 mg/kg/d) or MTA (75 or 150 mg/kg/d) in drinking water for 6 days. Colonic mucosa was scrapped off and gene expression measured by real-time PCR.
Three-month old male C57/B6 mice were fed ad libitum a standard diet (Harland Tekiad irradiated mouse diet 7912, Madison, Wis.), caged individually and had free access to water supplemented with SAMe ([…]), MTA (75 mg/kg/d), phosphate buffered saline (vehicle for SAMe) or DMSO (0.2%, vehicle for MTA) for 6 days. SAMe and MTA were made fresh daily. The amount of water intake, body weight, and animal behavior were closely monitored. After 6 days, animals were sacrificed, intestine was cut open along the longitudinal axis, and mucosa was stripped from the intestine (46). Mucosa was weighed and a portion processed for SAMe measurement as described below, the rest snap frozen for subsequent RNA extraction.
as §2

[10] = molecular target: MAT II (Rattus norvegicus, UniProt P18298); conditions: cited from earlier work
[11] = 75 mg/kg/d in drinking water, six days
[12] = 150 mg/kg/d in drinking water, six days

Chain of MAT II (P18298 whole entry): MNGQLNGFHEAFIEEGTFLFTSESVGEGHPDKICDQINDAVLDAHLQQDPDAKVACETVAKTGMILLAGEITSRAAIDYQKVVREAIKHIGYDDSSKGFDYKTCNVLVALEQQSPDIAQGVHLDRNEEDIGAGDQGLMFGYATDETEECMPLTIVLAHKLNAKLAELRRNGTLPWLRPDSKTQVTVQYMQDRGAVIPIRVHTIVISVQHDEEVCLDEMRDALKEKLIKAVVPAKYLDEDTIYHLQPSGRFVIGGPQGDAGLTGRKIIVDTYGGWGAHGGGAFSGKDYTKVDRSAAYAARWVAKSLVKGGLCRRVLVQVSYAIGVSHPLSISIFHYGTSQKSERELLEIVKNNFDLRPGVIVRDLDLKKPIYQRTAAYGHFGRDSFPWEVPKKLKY
Chain of MAT II (Q5U2R0 whole entry partner): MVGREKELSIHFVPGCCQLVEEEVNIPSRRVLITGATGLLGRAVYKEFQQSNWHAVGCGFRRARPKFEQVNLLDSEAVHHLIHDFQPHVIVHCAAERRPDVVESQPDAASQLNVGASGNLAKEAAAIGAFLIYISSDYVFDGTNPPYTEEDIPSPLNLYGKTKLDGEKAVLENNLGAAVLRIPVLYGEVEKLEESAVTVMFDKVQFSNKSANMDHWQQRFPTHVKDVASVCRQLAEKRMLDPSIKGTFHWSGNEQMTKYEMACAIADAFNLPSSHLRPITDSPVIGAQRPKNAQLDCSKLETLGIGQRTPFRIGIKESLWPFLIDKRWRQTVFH

C[S+](CC[C@H](N)C(=O)O)C[C@H]1O[C@@H](n2cnc3c(N)ncnc32)[C@H](O)[C@@H]1O (stereo partly drawn) [SAMe, S-adenosylmethionine]
MAT2A expression ([1]; 0.5 mM SAMe): 81 % baseline | MAT2A expression ([1]; 1 mM SAMe): 65 % baseline | MAT2A expression ([1]; 2 mM SAMe): 55 % baseline | MAT2A expression ([1]; 5 mM SAMe): 38 % of baseline | reduction of baseline expression of MAT2A ([1]; SAMe 5 mM or MTA 1 mM, 6 hrs, HT29 cells): 60% | IGF-1-mediated induction of MAT2A on co-treatment ([1]; co-treatment 3 hrs): blunted the IGF-1-mediated induction of MAT2A | leptin- or EGF-induced MAT2A expression on co-treatment ([1]; co-treatment with leptin (6 hrs) or EGF (3 hrs)): prevented the ability of these growth factors to induce MAT2A | apoptosis [2]: induced apoptosis in a dose-dependent manner | Putrescine ([3]; SAMe 2 mM): 0.06 ± 0.01 nmol/mg protein | Spermidine ([3]; SAMe 2 mM): 2.37 ± 0.02 nmol/mg protein | Spermine ([3]; SAMe 2 mM): 12.39 ± 2.86 nmol/mg protein | Putrescine ([3]; SAMe 5 mM): 0.01 ± 0.01 nmol/mg protein | Spermidine ([3]; SAMe 5 mM): 1.90 ± 0.18 nmol/mg protein | Spermine ([3]; SAMe 5 mM): 13.21 ± 2.58 nmol/mg protein | ODC expression ([4]; SAMe 2 mM): 1.1 ± 0.07 fold of control | ODC expression ([4]; SAMe 5 mM): 0.8 ± 0.04 fold of control | SPD syn expression ([5]; SAMe 2 mM): 1.1 ± 0.02 fold of control | SPD syn expression ([5]; SAMe 5 mM): 0.8 ± 0.02 fold of control | SPM syn expression ([6]; SAMe 2 mM): 1.1 ± 0.02 fold of control | SPM syn expression ([6]; SAMe 5 mM): 1.0 ± 0.01 fold of control | Bcl-xS mRNA level [7]: no effect on Bcl-xS mRNA level | TRAIL-induced apoptosis [8]: sensitized RKO cells to TRAIL-induced apoptosis | MAT2A expression, colon [9, 11]: 128 ± 20 % of control MAT2A mRNA levels | MAT2A expression, proximal small intestine [9, 11]: 99 ± 2 % of control MAT2A mRNA levels | MAT2A expression, colon [9, 12]: 85 ± 10 % of control MAT2A mRNA levels | MAT2A expression, proximal small intestine [9, 12]: 81 ± 4 % of control MAT2A mRNA levels | decrease of MAT2A expression in proximal small intestine ([9]; SAMe 150 mg/kg/d, MTA 75 mg/kg/d, six days): 20% | inhibition in colonic MAT2A mRNA level ([9]; SAMe 450 mg/kg/d (highest dose), 6 days): 75% | Inhibition by SAMe ([10]; MAT II): Yes | IC50 ([10]; read-out: IC50, inhibition of MAT II): 60 µM

Reference: patent US20100166727A1, “S-Adenosylmethionine And Methylthioadensosine In Chemoprevention And Treatment Of Colon Polyps And Cancer” (UNIVERSITY OF SOUTHERN CALIFORNIA, priority 2007, published 2010)
